According to patent publication US20240269139A1, “COMPOUNDS FOR TARGETED PROTEIN DEGRADATION OF KINASES” (DANA-FARBER CANCER INSTITUTE, INC., priority 2020, published 2024):
Read-outs that look alike come from different tables or passages of the source.

Legend:
[1] = molecular target: T1, extended human kinome (kinase-like proteins) (Homo sapiens, UniProt Q9UHH9); test: Whole cell quantitative proteomics: extended kinome hits; settings: Accession Q9UHH9
T1 sequence (Q9UHH9 1-426): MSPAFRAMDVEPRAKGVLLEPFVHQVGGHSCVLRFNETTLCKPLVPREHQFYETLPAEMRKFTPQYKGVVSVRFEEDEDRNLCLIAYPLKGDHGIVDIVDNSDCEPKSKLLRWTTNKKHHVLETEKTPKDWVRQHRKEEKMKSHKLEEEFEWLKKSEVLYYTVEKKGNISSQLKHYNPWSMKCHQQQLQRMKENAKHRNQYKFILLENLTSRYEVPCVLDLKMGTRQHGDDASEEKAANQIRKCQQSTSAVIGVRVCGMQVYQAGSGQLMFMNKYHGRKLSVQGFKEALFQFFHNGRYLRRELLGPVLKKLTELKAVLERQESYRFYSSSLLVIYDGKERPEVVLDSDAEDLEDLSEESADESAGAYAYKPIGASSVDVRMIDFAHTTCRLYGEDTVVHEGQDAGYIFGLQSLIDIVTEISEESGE

[2] = molecular target: protein kinases (human kinome) (Homo sapiens, UniProt Q9Y243); format: cell-based; settings: AKT3 (Q9Y243-1)
Chain of protein kinases (human kinome) (Homo sapiens, UniProt Q9Y243) (Q9Y243 whole entry): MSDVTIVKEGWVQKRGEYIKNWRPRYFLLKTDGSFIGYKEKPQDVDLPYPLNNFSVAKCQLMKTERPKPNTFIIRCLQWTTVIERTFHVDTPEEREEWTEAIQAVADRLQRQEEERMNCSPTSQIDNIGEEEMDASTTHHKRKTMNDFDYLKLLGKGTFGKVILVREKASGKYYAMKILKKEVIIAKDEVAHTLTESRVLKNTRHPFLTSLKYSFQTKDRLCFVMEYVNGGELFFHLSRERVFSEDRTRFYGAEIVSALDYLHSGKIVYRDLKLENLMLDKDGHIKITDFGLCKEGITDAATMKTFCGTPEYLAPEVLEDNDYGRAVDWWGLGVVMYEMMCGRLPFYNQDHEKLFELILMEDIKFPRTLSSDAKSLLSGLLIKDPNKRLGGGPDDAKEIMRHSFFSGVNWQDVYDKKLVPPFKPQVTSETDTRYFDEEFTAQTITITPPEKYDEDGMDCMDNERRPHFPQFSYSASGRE

[3] = molecular target: protein kinases (human kinome) (Homo sapiens, UniProt P11802); format: cell-based
Chain of protein kinases (human kinome) (Homo sapiens, UniProt P11802) (P11802 whole entry): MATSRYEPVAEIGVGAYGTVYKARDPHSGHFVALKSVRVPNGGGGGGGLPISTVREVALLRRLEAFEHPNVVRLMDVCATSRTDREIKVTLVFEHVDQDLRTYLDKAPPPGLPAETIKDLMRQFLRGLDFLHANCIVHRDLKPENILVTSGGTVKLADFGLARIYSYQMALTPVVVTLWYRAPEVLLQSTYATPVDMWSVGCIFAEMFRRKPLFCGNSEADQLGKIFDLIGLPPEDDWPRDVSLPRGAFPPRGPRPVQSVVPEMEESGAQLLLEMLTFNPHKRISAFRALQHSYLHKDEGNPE

[4] = molecular target: protein kinases (human kinome) (Homo sapiens, UniProt P31749); format: cell-based; settings: for logFC: AKT1 (P31749)
Chain of protein kinases (human kinome) (Homo sapiens, UniProt P31749) (P31749 whole entry): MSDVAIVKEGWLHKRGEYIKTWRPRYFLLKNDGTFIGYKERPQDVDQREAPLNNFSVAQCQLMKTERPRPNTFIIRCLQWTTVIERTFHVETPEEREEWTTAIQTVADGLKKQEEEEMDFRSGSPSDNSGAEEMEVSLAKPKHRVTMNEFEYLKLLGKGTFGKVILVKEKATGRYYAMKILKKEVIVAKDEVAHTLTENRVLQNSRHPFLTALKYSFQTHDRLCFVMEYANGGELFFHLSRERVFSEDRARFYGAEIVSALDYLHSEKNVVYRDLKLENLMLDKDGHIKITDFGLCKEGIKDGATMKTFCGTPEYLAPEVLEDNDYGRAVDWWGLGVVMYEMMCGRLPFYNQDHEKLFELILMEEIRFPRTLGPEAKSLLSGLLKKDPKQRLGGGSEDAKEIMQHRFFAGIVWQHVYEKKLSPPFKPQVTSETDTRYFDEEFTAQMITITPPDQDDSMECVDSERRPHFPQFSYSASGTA

[5] = molecular target: T2, protein kinases (human kinome) (Homo sapiens, UniProt Q9UEE5); format: cell-based; settings: STK17A Q9UEE5
T2 sequence (Q9UEE5 1-414): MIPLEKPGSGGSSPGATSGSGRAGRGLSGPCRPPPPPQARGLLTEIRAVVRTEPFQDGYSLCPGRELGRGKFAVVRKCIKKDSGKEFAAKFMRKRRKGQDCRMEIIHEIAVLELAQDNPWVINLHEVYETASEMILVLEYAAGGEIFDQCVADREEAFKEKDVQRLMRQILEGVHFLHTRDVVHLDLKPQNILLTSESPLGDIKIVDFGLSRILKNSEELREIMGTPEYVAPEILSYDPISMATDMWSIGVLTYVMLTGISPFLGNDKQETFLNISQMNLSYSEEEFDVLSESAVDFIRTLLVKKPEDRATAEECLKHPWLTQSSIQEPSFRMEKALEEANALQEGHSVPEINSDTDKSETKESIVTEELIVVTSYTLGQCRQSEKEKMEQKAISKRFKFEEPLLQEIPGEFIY

[6] = molecular target: protein kinases (human kinome) (Homo sapiens, UniProt P31751); format: cell-based; settings: AKT2 (P31751)
Chain of protein kinases (human kinome) (Homo sapiens, UniProt P31751) (P31751 whole entry): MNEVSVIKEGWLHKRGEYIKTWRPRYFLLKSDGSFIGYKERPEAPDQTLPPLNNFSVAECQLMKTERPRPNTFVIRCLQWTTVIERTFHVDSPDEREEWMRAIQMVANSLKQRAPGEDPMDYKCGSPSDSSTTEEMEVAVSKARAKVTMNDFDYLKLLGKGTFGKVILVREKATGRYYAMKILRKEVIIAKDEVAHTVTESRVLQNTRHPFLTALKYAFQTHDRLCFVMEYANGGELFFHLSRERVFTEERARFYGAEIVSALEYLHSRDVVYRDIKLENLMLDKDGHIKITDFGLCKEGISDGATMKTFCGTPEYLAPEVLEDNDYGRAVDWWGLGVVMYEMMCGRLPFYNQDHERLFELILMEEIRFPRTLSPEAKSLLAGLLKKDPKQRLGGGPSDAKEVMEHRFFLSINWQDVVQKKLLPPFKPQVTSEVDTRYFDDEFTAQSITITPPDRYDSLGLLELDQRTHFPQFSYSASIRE

[7] = molecular target: extended human kinome (kinase-like proteins) (Homo sapiens, UniProt P27144); test: Whole cell quantitative proteomics: extended kinome hits; settings: experiment wp137
Chain of extended human kinome (kinase-like proteins) (Homo sapiens, UniProt P27144) (P27144 whole entry): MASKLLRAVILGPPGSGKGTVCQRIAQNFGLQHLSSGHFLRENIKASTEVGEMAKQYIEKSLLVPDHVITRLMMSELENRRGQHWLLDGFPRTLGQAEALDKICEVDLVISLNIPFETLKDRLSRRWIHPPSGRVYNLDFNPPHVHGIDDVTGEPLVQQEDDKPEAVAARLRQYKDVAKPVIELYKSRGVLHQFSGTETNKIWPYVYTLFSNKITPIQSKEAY

[8] = molecular target: T3, extended human kinome (kinase-like proteins) (Homo sapiens, UniProt Q7L8L6); test: as above; settings: Accession Q7L8L6; experiment wp137
T3 sequence (Q7L8L6 28-764): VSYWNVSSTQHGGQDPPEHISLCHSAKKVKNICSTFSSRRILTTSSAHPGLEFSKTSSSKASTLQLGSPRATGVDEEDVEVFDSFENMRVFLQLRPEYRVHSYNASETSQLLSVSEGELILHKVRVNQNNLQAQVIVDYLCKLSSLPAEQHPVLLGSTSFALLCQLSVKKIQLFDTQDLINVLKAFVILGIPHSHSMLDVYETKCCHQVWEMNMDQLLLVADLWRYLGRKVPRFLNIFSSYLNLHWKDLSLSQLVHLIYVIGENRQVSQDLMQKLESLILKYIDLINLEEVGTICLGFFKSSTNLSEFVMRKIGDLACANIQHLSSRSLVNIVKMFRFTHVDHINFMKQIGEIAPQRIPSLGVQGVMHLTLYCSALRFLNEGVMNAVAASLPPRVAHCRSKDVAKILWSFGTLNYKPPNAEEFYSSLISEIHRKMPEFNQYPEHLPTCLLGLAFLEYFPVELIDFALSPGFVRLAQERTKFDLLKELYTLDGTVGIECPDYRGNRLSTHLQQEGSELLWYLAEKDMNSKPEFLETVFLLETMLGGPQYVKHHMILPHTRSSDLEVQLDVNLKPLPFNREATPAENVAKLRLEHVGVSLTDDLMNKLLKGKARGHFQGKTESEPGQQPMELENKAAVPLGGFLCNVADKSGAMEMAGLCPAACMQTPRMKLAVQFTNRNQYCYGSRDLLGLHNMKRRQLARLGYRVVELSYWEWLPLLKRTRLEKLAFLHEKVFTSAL

[9] = molecular target: protein kinases (human kinome) (Homo sapiens, UniProt Q15118); format: cell-based; settings: PDK1 Q15118; experiment wp137
Chain of protein kinases (human kinome) (Homo sapiens, UniProt Q15118) (Q15118 29-436): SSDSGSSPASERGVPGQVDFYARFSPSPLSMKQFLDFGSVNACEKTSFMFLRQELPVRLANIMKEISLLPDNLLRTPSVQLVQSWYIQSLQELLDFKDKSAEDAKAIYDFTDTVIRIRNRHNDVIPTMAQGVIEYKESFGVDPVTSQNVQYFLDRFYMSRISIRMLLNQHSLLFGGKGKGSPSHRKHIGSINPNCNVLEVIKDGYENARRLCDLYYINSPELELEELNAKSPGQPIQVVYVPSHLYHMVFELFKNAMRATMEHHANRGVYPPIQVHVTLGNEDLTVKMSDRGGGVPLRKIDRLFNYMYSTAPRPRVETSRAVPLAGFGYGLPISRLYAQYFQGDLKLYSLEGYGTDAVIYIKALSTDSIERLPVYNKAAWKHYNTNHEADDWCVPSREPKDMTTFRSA

[10] = molecular target: protein kinases (human kinome) (Homo sapiens, UniProt O14874); format: cell-based; settings: BCKDK (O14874), experiment wp137
[11] = molecular target: extended human kinome (kinase-like proteins) (Homo sapiens, UniProt Q16875); test: Whole cell quantitative proteomics: extended kinome hits; settings: Accession Q16875; experiment wp134
[12] = molecular target: protein kinases (human kinome) (Homo sapiens, UniProt P51451); format: cell-based; settings: for logFC BLK: BLK (P51451), direction down; for logFC of BLK (P51451): down
Chain of protein kinases (human kinome) (Homo sapiens, UniProt P51451) (P51451 whole entry): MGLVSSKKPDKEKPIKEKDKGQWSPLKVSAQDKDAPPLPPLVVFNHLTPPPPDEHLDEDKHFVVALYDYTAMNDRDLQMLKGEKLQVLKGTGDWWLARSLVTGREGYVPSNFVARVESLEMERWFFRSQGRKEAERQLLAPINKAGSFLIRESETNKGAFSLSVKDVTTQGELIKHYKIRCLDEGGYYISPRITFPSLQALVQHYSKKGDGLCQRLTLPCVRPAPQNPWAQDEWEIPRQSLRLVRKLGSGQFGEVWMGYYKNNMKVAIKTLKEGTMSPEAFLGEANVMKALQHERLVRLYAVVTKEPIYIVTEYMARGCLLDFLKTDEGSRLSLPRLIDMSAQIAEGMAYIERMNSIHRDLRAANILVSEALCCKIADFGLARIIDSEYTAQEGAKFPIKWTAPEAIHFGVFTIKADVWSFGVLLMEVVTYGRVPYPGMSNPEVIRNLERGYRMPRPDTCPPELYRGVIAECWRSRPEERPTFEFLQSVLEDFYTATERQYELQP

[13] = molecular target: protein kinases (human kinome) (Homo sapiens, UniProt P53671); format: cell-based; settings: experiment wp152
Chain of protein kinases (human kinome) (Homo sapiens, UniProt P53671) (P53671 whole entry): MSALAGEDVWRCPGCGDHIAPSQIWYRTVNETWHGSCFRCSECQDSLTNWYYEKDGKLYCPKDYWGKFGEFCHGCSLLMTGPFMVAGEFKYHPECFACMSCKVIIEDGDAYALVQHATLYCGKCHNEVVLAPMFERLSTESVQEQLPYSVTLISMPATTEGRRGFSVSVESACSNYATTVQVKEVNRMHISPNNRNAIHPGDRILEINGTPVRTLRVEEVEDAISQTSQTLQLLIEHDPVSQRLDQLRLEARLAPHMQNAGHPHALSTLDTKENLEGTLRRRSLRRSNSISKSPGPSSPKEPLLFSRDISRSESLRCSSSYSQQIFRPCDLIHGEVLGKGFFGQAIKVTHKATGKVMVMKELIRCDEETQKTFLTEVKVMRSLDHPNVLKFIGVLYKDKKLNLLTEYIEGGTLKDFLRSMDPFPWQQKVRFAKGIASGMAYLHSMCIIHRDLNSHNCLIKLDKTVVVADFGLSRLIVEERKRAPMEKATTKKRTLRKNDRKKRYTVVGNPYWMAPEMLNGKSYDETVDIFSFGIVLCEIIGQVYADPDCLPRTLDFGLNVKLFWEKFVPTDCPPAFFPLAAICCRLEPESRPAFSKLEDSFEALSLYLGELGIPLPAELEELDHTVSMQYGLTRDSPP

[14] = molecular target: protein kinases (human kinome) (Homo sapiens, UniProt P35790); format: cell-based; settings: CHKA P35790; experiment wp152
[15] = molecular target: protein kinases (human kinome) (Homo sapiens, UniProt Q9H0K1); format: cell-based; settings: experiment wp134
[16] = molecular target: T4, protein kinases (human kinome) (Homo sapiens, UniProt Q8TAS1); format: cell-based; settings: experiment wp134
T4 sequence (Q8TAS1 1-419): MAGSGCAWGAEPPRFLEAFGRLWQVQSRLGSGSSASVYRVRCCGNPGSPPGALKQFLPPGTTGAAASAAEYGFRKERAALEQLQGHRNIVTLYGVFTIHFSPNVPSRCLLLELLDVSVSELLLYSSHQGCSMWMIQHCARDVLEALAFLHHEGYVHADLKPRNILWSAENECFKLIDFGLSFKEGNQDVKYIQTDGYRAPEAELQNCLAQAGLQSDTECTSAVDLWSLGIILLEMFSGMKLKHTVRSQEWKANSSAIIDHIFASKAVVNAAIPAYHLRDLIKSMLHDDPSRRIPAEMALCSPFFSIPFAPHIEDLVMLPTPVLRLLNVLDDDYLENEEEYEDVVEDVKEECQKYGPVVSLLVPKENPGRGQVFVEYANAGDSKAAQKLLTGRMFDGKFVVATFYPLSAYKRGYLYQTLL

[17] = molecular target: protein kinases (human kinome) (Homo sapiens, UniProt O43683); format: cell-based; settings: for logFC: BUB1 (O43683); for logFC BUB1 (O43683): direction down
Chain of protein kinases (human kinome) (Homo sapiens, UniProt O43683) (O43683 whole entry): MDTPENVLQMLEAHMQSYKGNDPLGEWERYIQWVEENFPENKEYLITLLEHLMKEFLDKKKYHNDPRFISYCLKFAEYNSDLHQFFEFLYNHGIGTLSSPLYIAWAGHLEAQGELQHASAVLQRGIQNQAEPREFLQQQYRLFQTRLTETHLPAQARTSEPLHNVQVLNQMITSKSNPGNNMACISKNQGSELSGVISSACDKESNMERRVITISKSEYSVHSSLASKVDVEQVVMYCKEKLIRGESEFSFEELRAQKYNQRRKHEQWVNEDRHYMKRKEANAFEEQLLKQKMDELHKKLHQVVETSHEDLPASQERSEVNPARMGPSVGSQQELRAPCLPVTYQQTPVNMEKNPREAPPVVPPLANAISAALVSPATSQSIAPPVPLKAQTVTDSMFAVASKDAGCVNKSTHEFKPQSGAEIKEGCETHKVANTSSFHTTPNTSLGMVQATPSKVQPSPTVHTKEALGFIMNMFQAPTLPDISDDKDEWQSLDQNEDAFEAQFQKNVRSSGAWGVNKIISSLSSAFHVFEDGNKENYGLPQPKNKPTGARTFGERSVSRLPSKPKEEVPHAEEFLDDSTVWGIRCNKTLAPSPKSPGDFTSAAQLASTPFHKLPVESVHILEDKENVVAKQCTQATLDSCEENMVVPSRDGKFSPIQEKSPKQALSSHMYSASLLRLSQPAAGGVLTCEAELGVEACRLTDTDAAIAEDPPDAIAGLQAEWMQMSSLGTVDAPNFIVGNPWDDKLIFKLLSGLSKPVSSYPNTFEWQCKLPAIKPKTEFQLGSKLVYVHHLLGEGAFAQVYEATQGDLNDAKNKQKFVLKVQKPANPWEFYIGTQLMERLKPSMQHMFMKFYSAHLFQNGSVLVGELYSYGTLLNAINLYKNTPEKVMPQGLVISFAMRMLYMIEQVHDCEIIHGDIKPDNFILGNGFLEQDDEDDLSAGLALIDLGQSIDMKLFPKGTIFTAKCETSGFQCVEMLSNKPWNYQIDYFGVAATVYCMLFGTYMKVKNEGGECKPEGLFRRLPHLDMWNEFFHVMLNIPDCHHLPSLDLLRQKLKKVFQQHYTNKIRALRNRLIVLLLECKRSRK

[18] = molecular target: T5, protein kinases (human kinome) (Homo sapiens, UniProt P42680); format: cell-based; settings: TEC (P42680), experiment wp134
T5 sequence (P42680 1-631): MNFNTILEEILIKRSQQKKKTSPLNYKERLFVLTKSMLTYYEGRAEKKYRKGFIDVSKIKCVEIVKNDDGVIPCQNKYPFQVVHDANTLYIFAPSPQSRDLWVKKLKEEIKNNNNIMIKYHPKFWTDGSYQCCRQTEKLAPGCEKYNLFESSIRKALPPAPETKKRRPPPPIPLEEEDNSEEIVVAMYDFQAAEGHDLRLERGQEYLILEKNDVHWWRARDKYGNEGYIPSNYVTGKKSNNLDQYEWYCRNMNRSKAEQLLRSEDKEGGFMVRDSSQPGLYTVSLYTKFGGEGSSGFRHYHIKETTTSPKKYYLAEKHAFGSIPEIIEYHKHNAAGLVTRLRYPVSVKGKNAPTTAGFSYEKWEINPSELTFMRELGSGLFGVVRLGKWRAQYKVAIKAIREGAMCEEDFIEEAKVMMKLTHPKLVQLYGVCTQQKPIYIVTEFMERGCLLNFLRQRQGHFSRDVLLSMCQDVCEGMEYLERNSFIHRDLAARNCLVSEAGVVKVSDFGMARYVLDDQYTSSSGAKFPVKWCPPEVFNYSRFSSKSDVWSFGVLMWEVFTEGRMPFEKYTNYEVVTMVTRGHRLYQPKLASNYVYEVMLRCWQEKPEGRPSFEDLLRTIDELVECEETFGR

[19] = molecular target: protein kinases (human kinome) (Homo sapiens, UniProt Q07912); format: cell-based
[20] = system: protein kinases (human kinome); format: cell-based
[21] = experiment wp135, 8 hr, direction down
[22] = experiment wp104, direction down
[23] = experiment wp137, direction down

C[C@@H]1C[C@@H](O)c2ncnc(N3CCN(C(=O)[C@H](CNCCCCCCCCCCc4cccc5c4C(=O)N(C4CCC(=O)NC4=O)C5=O)c4ccc(Cl)cc4)CC3)c21 (stereo partly drawn) [INY.03.041_01]
logFC IP6K2 ([1]; experiment wp135, 8 hr): −0.6456
logFC ([2]; experiment wp135, 8 hr): −2.215
logFC [2, 21]: −2.215
logFC CDK4 (P11802) ([3]; experiment wp135, 8 hr): −0.3281
logFC ([4]; experiment wp135, 8 hr): −2.273
logFC of AKT1 (P31749) ([4]; experiment wp135, 8 hr): −2.273
logFC ([5]; experiment wp135, 8 hr): −0.497
logFC ([6]; experiment wp135, 8 hr): −2.274
logFC [6, 21]: −2.274

C[C@@H]1C[C@@H](O)c2ncnc(N3CCN(C(=O)[C@H](CNCCCCCCCCNC(=O)COc4cccc5c4C(=O)N(C4CCC(=O)NC4=O)C5=O)c4ccc(Cl)cc4)CC3)c21 (stereo partly drawn) [INY.02.164]
logFC IP6K2 ([1]; experiment wp137): −0.5449
logFC AK4 (P27144) [7]: −0.5601
logFC FASTKD5 [8]: −0.3422
logFC [9]: −0.4419
logFC PDK1 [9]: −0.4419
logFC ([2]; experiment wp104): −1.478
logFC [2, 22]: −1.478
logFC ([2]; experiment wp137): −3.147
logFC [2, 23]: −3.147
logFC [10]: −0.36
logFC ([10]; direction down): −0.36
logFC ([4]; experiment wp104): −0.7926
logFC ([4]; experiment wp137): −3.206
logFC of AKT1 (P31749) ([4]; Experiment wp104): −0.7926
logFC of AKT1 (P31749) ([4]; experiment wp137): −3.206
logFC ([6]; experiment wp104): −1.078
logFC [6, 22]: −1.078
logFC ([6]; experiment wp137): −3.156
logFC [6, 23]: −3.156

CN[C@@H](C)C(=O)N[C@H](C(=O)N1CCC[C@H]1c1nc(C(=O)c2cccc(OCCCCCn3cc(CN4CCN(c5ccc(Nc6ncc7c(n6)N(C)C(=O)N(c6cc(NC(=O)c8cccc(C(F)(F)F)c8)ccc6C)C7)cn5)CC4)nn3)c2)cs1)C1CCCCC1 [DB118430]
logFC PFKFB3 [11]: −0.4616
logFC BLK ([12]; experiment wp134): −0.5826
logFC BLK ([12]; experiment wp152): −0.9023
logFC of BLK (P51451) ([12]; Experiment wp134): −0.5826
logFC of BLK (P51451) ([12]; Experiment wp152): −0.9023
logFC LIMK2 ([13]; LIMK2 (P53671), down): −0.4571
logFC of LIMK2 ([13]; LIMK2 P53671): −0.4571
logFC [14]: −0.3601
logFC CDK4 (P11802) ([3]; experiment wp152): −0.3644
logFC of SIK2 ([15]; Accession Q9H0K1): −0.3803
logFC SIK2 (Q9H0K1) ([15]; direction of change down): −0.3803
logFC UHMK1 ([16]; Accession Q8TAS1, direction down): −0.4944
logFC UHMK1 ([16]; UHMK1 (Q8TAS1)): −0.4944
logFC ([5]; experiment wp134): −0.3497
logFC STK17A ([5]; experiment wp134): −0.3497
logFC ([17]; experiment wp134): −0.3866
logFC ([17]; experiment wp152): −0.3814
logFC BUB1 (O43683) ([17]; Experiment wp134): −0.3866
logFC BUB1 (O43683) ([17]; Experiment wp152): −0.3814
logFC [18]: −0.5666
logFC ([18]; direction down): −0.5666
logFC TNK2 (Q07912-1) ([19]; Experiment wp134, direction down): −0.575
logFC TNK2 ([19]; TNK2 (Q07912-1), experiment wp134): −0.575
kinases the bifunctional compound degrades ([20]; as stated for the structure in the embodiments): BLK, BUB1, CDK4, LIMK2, SIK2, STK17A, TEC, TNK2, and UHMK1
Kinase hits ([20]; kinases significantly downregulated vs DMSO (fold change cutoff −1.25, P-value<0.01), ≤8 h, 0.1-5 μM degrader, 7 cell lines): BLK, BUB1, CDK4, LIMK2, SIK2, STK17A, TEC, TNK2, UHMK1
Total no. kinase hits ([20]; number of degraded kinases per library compound): 9
